Article PMC6906394, “Radiomodifying action, Pharmacokinetic and Biodistribution of Ethyl 3, 4, 5-trihydroxybenzoate-Implication in development of radiomitigator” (Scientific Reports, 2019)
“Also recorded” adds a separate entry of the source. Where two headings read alike, the source gives them in different places.

Assay: Biodistribution of GAE in liver, kidney, heart, spleen and brain after oral administration
Type: in vivo, mice
Method: The Biodistribution in mice at 15 min, 30 min, 1 h, 2 h, 4 h, 8 h and 24 h after GAE administration are presented in (Fig. 2A,B). […] Moreover; no GAE peak was identified in untreated control and irradiated animals. In the GAE treated group the concentration of GAE is highest in the liver 3383.1 ± 137.79 ng/g at 1 h, 529.13 ± 102.8 ng/g in the kidney at 2 h and 283.1 ± 20.60 ng/g in the brain at 1 h after GAE administration. […] After 2 h of GAE administration its concentration decreased GAE was found in heart, spleen, and kidney up to 4 h, whereas in brain it found in low concentration up to 2 h.
Black C57BL/6 male mice weighing 28–30 g were maintained at the Institutional Animal Experimental Facility. Animals were fed according to standard chow diet having free access to food and water ad libitum. The environmental condition was maintained at room temperature (22 ± 2 °C), relative humidity (45–60%) and 12 h dark/light cycle controlled facility. In this study, mice were randomly assigned to four different groups (n = 21) i.e untreated control (UC), GAE-treated (GAE), Radiation + GAE (R + GAE), Radiation group (R). Mice fasted overnight with free access to water before being dosed. Isolated GAE from leaves was dissolved with distilled water and ethanol in (7:3 v/v) and administered orally at a dose of 200 mg/kg body weight to GAE-treated and R + GAE treated groups only. The experiment was carried out in accordance to regulation and guideline of the, Committee for the purpose of control and supervision of Experiments on animals (CPCSEA), and study was approved by Institutional Animal Experimental Committee (IAEC), Institute of Nuclear Medicine & Allied Science, Delhi, India.
Group I untreated control (UC), Group II GAE-treated (GAE), Group III Radiation + GAE (R + GAE) and Group IV Radiation (R) exposed. The GAE was administered orally 15 min post irradiation. The whole-body radiation (5 Gy) was carried out using Bhabahtron II, Telecobalt machine, Panacea medical technology, Bangalore. The mice exposed at a dose rate of 0.961 Gy/min at field 35 × 35 cm^2 and the distance maintained from the source was 80 cm.
Blood and tissues samples of mice were collected at 15 min, 30 min, 1 h, 2 h, 4 h, 8 h and 24 h after GAE administration (3mice per time). Blood was obtained from retro orbital plexus of mice and collected in heparinized eppendorf tubes, followed by centrifugation at 2500 g for 15 min. The resulting plasma layer was separated and stored in tubes at −20 °C for further analysis. Tissue samples (brain, heart, liver, kidney, and spleen) were weighed and put into the normal saline solution to remove the blood by blotting on filter paper and were minced and homogenized with physiological saline solution (1:2 w/v) thoroughly in an ice bath. The homogenates were stored at −80 °C until the analysis.
For the extraction from tissue, each aliquot (300 µL) of homogenate (liver, kidney, brain, heart & spleen) was spiked with 20 µL of the IS working solution (100 ng/mL) during analysis; homogenate was dispensed in a standing vial containing 400 µL ACN to precipitate proteins. The biological samples were swirled for 3 min and were centrifuged at 12000 rpm for 10 min at 4 °C. The obtained supernatant was tubed and dried under a stream of nitrogen at 40 °C, the sample was reconstituted with mobile phase, then and 20 µL was injected into the HPLC system.
GAE was separated on the high-performance liquid chromatography (HPLC), SPD-10A consisting of binary HPLC pump, ultraviolet detector, and a Rheodyne manual injector equipped with a 20 µl loop (Shimadzu, Japan). Separation was achieved on Kinetex Biphenyl RP 100 Å column (2.6 µm, 150 × 4.6 mm) (Phenomenex, Torrance) installed with phenyl cartridges (Phenomenex, Torrance). The system was controlled using class VP software (Shimadzu, Japan). […]

[1] = R + GAE treated group (5 Gy), 200 mg/kg b.wt oral
[2] = after GAE administration, 200 mg/kg b.wt oral

- concentration of GAE (liver, tissue implied by context) [1]: 1928.5 ± 39.63 ng/g
- kidney concentration of GAE [1]: 307.77 ± 7.80 ng/g
- time up to which GAE was found in brain (low concentration) [2]: up to 2 h
- time up to which GAE was found in heart, spleen and kidney [2]: up to 4 h
- tissues with the highest concentration (biodistribution, 200 mg/kg b.wt oral): liver and kidney
- peak GAE concentration in liver relative to other tissues (both GAE treated and R + GAE treated groups): two fold higher
- concentration at 1 h (male, C57BL/6, mouse, brain, po, 200 mg/kg, GAE treated group, 200 mg/kg b.wt oral, read-out: concentration of GAE in the brain): 283 ± 20.6 ng/g
- concentration at 1 h (male, C57BL/6, mouse, heart, po, 200 mg/kg, GAE treated animals, 200 mg/kg b.wt oral, read-out: GAE concentration in the heart): 216 ng/g
- concentration at 1 h (male, C57BL/6, mouse, heart, po, 200 mg/kg, R + GAE group (5 Gy), 200 mg/kg b.wt oral, read-out: GAE concentration in the heart): 506 ± 39.4 ng/g
- concentration at 2 h (male, C57BL/6, mouse, kidney, po, 200 mg/kg, GAE treated group, 2 h, 200 mg/kg b.wt oral): 529 ± 103 ng/g
- concentration at 1 h (male, C57BL/6, mouse, liver, po, 200 mg/kg, GAE treated group, 200 mg/kg b.wt oral, read-out: concentration of GAE in the liver): 3380 ± 138 ng/g
- concentration at 1 h (male, C57BL/6, mouse, spleen, po, 200 mg/kg, GAE treated animals, 200 mg/kg b.wt oral, read-out: GAE concentration in the spleen): 484 ng/g
- concentration at 1 h (male, C57BL/6, mouse, spleen, po, 200 mg/kg, R + GAE group (5 Gy), 200 mg/kg b.wt oral, read-out: GAE concentration in the spleen): 522 ± 73.2 ng/g
Compound: CCOC(=O)c1cc(O)c(O)c(O)c1 [GAE, Ethyl 3,4,5-trihydroxybenzoate]
- crossing of the blood-brain barrier (GAE detected in brain in both GAE and R + GAE treated groups): crosses the blood-brain barrier; also recorded: could cross the blood-brain barrier
